For 20 compounds, EC30 results are on record in patent publication US10758534B2 (Vertex Pharmaceuticals Incorporated, priority 2014, dated 2020).

The target in this assay is T1, F508del (Homo sapiens, UniProt P13569, DEL508-508).
T1 construct: expressed in transfected cells
T1 sequence (P13569 with tags, fused parts or gaps DEL508-508): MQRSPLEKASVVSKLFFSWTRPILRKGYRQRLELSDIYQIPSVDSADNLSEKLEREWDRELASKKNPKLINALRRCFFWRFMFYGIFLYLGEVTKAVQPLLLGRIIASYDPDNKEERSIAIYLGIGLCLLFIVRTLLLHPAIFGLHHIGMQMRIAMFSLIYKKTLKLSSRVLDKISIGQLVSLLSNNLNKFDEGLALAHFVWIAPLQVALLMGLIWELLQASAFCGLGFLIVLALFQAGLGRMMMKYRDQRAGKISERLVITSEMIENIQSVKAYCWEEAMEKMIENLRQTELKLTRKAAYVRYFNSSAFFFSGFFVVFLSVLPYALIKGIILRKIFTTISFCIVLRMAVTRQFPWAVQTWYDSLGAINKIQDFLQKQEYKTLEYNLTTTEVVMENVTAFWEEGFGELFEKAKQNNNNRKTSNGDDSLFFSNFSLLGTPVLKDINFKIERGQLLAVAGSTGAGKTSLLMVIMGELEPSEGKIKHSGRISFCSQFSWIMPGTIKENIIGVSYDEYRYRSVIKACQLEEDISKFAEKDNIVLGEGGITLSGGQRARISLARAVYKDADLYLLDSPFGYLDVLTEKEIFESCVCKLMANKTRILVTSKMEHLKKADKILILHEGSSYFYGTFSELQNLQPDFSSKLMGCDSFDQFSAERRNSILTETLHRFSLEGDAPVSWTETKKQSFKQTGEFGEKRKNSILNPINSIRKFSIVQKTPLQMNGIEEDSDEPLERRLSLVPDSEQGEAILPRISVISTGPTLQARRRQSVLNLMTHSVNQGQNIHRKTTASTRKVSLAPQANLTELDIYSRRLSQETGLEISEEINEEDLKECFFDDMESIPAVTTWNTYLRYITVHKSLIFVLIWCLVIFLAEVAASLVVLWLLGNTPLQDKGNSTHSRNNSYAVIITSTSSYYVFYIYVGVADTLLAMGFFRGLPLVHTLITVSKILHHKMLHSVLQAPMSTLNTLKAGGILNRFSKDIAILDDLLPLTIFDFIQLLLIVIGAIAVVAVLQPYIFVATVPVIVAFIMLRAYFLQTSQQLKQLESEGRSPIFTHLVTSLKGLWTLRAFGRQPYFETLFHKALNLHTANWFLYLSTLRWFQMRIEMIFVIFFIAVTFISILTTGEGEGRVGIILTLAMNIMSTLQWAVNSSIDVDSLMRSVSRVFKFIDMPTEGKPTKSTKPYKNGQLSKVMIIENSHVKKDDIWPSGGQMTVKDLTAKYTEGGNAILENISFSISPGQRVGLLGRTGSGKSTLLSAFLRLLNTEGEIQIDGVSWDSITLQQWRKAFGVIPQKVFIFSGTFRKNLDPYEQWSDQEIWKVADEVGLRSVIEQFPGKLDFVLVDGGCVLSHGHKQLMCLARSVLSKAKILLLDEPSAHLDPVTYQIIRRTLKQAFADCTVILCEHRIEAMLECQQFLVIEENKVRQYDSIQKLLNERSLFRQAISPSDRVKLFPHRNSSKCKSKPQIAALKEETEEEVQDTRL
Description: Protocol 1: membrane potential optical assay (FLIPR III, voltage sensing dye), identification of potentiator compounds. In kind it is cell-based. Conditions: Table 3, compounds of Table 1. In short, it runs like this: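 Read-out: change in voltage-sensing dye fluorescence (FLIPR III) as a measure of F508del conductance. Temperature-corrected (27° C, 24 hrs) NIH 3T3 cells expressing F508del are pretreated with potentiators, dye-loaded, then stimulated with forskolin under a chloride ion gradient using chloride-free gluconate bath.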
As for `CCOc1cccc2c1CN(Cc1c(C)cc(C)cc1C)[C@@]2(C)C(=O)NS(=O)(=O)c1ccc[nH]c1=O` [Compound 1476, (1R)-4-ethoxy-1-methyl-N-[(2-oxo-1H-pyridin-3-yl)sulfonyl]-2-[(2,4,6-trimethylphenyl)methyl]isoindoline-1-carboxamide], the EC30 entry is reported as “+++ (“+++” means <3 uM)”.

As to `CC(C)Oc1ccc(-c2ccc(C(=O)NS(=O)(=O)c3cccc(N)n3)c(N3C[C@H](C)CC3(C)C)n2)cn1` [Compound 949, N-[(6-amino-2-pyridyl)sulfonyl]-6-(6-isopropoxy-3-pyridyl)-2-[(4R)-2,2,4-trimethylpyrrolidin-1-yl]pyridine-3-carboxamide], the EC30 entry is on record as “+++ (“+++” means <3 uM)”. For the compound `Cc1ccc(-c2nc(C(C)(C)C)ccc2C(=O)NS(=O)(=O)c2ccc(C)cn2)cc1` [Compound 1355, 6-tert-butyl-N-[(5-methyl-2-pyridyl)sulfonyl]-2-(p-tolyl)pyridine-3-carboxamide], the EC30 entry was “++ (“++” means between 3 uM and 10 uM)”. As for `COC1CCN(c2nc(C(C)(C)C)ccc2C(=O)NS(=O)(=O)c2cccc(N)n2)CC1` [Compound 1164, N-[(6-amino-2-pyridyl)sulfonyl]-6-tert-butyl-2-(4-methoxy-1-piperidyl)pyridine-3-carboxamide], the entry is “++ (“++” means between 3 uM and 10 uM)”. For `COc1c(C(C)(C)C)nn(Cc2c(C)cc(C)cc2C)c1C(=O)NS(=O)(=O)c1cccc(N)c1` [Compound 1305, N-(3-aminophenyl)sulfonyl-5-tert-butyl-4-methoxy-2-[(2,4,6-trimethylphenyl)methyl]pyrazole-3-carboxamide] the value was “+++ (“+++” means <3 uM)”; for `CC(C)COc1cc(F)cc(-c2ccc(C(=O)NS(=O)(=O)c3cccc(N)n3)c(N3CC(C)CCC3C)n2)c1` (single isomer, unassigned) [Compound 1993, N-[(6-amino-2-pyridyl)sulfonyl]-2-(2,5-dimethyl-1-piperidyl)-6-(3-fluoro-5-isobutoxy-phenyl)pyridine-3-carboxamide], “+++ (“+++” means <3 uM)”; for `CC(C)COc1cc(F)cc(-c2ccc(C(=O)NS(=O)(=O)c3cccc(N)n3)c(N3CCCC34CC4)n2)c1` [Compound 1333, N-[(6-amino-2-pyridyl)sulfonyl]-2-(7-azaspiro[2.4]heptan-7-yl)-6-(3-fluoro-5-isobutoxy-phenyl)pyridine-3-carboxamide], “+++ (“+++” means <3 uM)”. For `CC(C)COc1cc(F)cc(-c2ccc(C(=O)NS(=O)(=O)c3cccc(N)n3)c(N3CC(C)CC34CC4)n2)c1` (centres unmarked) [Compound 1754, N-[(6-amino-2-pyridyl)sulfonyl]-6-(3-fluoro-5-isobutoxy-phenyl)-2-(5-methyl-7-azaspiro[2.4]heptan-7-yl)pyridine-3-carboxamide] the value was “+++ (“+++” means <3 uM)”; for `CCOc1ccc(-c2ccc(C(=O)NS(=O)(=O)c3cccc(N)n3)c(Oc3c(C)cc(C)cc3C)n2)cc1` [Compound 1337, N-[(6-amino-2-pyridyl)sulfonyl]-6-(4-ethoxyphenyl)-2-(2,4,6-trimethylphenoxy)pyridine-3-carboxamide], “+++ (“+++” means <3 uM)”. Turning to `CC1(C)CN(c2ncc(C(F)(F)F)cc2C(=O)NS(=O)(=O)c2cccc(N)n2)C(C)(C)C1` [Compound 1638, N-[(6-amino-2-pyridyl)sulfonyl]-2-(2,2,4,4-tetramethylpyrrolidin-1-yl)-5-(trifluoromethyl)pyridine-3-carboxamide], the EC30 entry is “+++ (“+++” means <3 uM)”. For `Cc1cc(C)c(Oc2nc(C3=CCN(Cc4ccccc4)CC3)ccc2C(=O)NS(=O)(=O)c2cccc(N)n2)c(C)c1` [Compound 1389, N-[(6-amino-2-pyridyl)sulfonyl]-6-(1-benzyl-3,6-dihydro-2H-pyridin-4-yl)-2-(2,4,6-trimethylphenoxy)pyridine-3-carboxamide], the EC30 result is recorded as “+++ (“+++” means <3 uM)”. In the case of `COc1ccc(OC)c(-c2ccc(C(=O)NS(=O)(=O)c3cccc(N)n3)c(Oc3c(C)cc(C)cc3C)n2)c1` [Compound 1225, N-[(6-amino-2-pyridyl)sulfonyl]-6-(2,5-dimethoxyphenyl)-2-(2,4,6-trimethylphenoxy)pyridine-3-carboxamide], the EC30 entry was “+++ (“+++” means <3 uM)”. For `COc1ccc(OC)c(-c2ccc(C(=O)NS(=O)(=O)c3ccc[nH]c3=O)c(Oc3c(C)cc(C)cc3C)n2)c1` [Compound 888, 6-(2,5-dimethoxyphenyl)-N-[(2-oxo-1H-pyridin-3-yl)sulfonyl]-2-(2,4,6-trimethylphenoxy)pyridine-3-carboxamide] the value was “++ (“++” means between 3 uM and 10 uM)”; for `Cc1ccc(F)c(-c2nc(C(C)(C)C)ccc2C(=O)NS(=O)(=O)c2cccc(N)c2)c1` [Compound 1350, N-(3-aminophenyl)sulfonyl-6-tert-butyl-2-(2-fluoro-5-methyl-phenyl)pyridine-3-carboxamide], “+ (“+” means greater than 10 uM)”; for `CC(C)COc1cc(F)cc(-c2ccc(C(=O)NS(=O)(=O)c3cccc(N)n3)c(N3CCCC(C(C)C)C3)n2)c1` (centres unmarked) [Compound 1098, N-[(6-amino-2-pyridyl)sulfonyl]-6-(3-fluoro-5-isobutoxy-phenyl)-2-(3-isopropyl-1-piperidyl)pyridine-3-carboxamide], “+++ (“+++” means <3 uM)”. As for `CC(C)COc1cc(F)cc(-c2ccc(C(=O)NS(=O)(=O)c3cccc(N)n3)c(OCC3CC3(C)C)n2)c1` (centres unmarked) [Compound 894, N-[(6-amino-2-pyridyl)sulfonyl]-2-[(2,2-dimethylcyclopropyl)methoxy]-6-(3-fluoro-5-isobutoxy-phenyl)pyridine-3-carboxamide], the entry is “+++ (“+++” means <3 uM)”; as for `COc1ncc(-c2ccc(C(=O)NS(=O)(=O)c3cc[nH]n3)c(Oc3ccc(C)cc3C)n2)cc1C` [Compound 892, 2-(2,4-dimethylphenoxy)-6-(6-methoxy-5-methyl-3-pyridyl)-N-(1H-pyrazol-3-ylsulfonyl)pyridine-3-carboxamide], “++ (“++” means between 3 uM and 10 uM)”; as for `CC(C)COc1cc(F)cc(-c2ccc(C(=O)NS(=O)(=O)c3nc(N)cs3)c(N3CCC(C)(C)CC3)n2)c1` [Compound 1168, N-(4-aminothiazol-2-yl)sulfonyl-2-(4,4-dimethyl-1-piperidyl)-6-(3-fluoro-5-isobutoxy-phenyl)pyridine-3-carboxamide], “+++ (“+++” means <3 uM)”. For the compound `Cc1cccc(C)c1Oc1nc(-c2cc(F)cc(OCC(C)(C)O)c2)ccc1C(=O)NS(=O)(=O)c1cccc(N)n1` [Compound 1890, N-[(6-amino-2-pyridyl)sulfonyl]-2-(2,6-dimethylphenoxy)-6-[3-fluoro-5-(2-hydroxy-2-methyl-propoxy)phenyl]pyridine-3-carboxamide], the EC30 result was “++ (“++” means between 3 uM and 10 uM)”. As for `CC1CN(c2ncccc2C(=O)NS(=O)(=O)c2cccc(OCc3ccc(Cl)cc3Cl)n2)C(C)(C)C1` (centres unmarked) [Compound 1929, N—[[6-[(2,4-dichlorophenyl)methoxy]-2-pyridyl]sulfonyl]-2-(2,2,4-trimethylpyrrolidin-1-yl)pyridine-3-carboxamide], the entry is “+++ (“+++” means <3 uM)”.
